In this experiment the test system is SH-SY5Y. Description: Cytotoxicity against SH-SY5Y human neuroblastoma cell line was determined. The class given is functional, cell-based.

One may read the IC50 as the point on the concentration scale where inhibition reaches its midpoint. Lower therefore signals inhibition by little substance. Compound `COc1ccc(/C=C\c2cc(OC)c(OC)c(OC)c2)cc1O` [COMBRETASTATIN A4] came in with an IC50 of 5.8 nM. In other words, the single-digit nanomolar range.
With `COc1ccc(C(=N/O)/C(=N\O)c2cc(OC)c(OC)c(OC)c2)cc1O` the figure was 254 nM; with `COc1ccc(-c2nonc2-c2cc(OC)c(OC)c(OC)c2)cc1O`, 1.4 nM.
`COc1ccc(-c2nonc2-c2cc(OC)c(OC)c(OC)c2)cc1` registered an IC50 of 8.9 nM.
In turn, `COc1ccc(-c2nonc2-c2cc(OC)c(OC)c(OC)c2)cc1N` gave an IC50 of 1.6 nM.
`COc1ccc(-c2nonc2-c2cc(OC)c(O)c(OC)c2)cc1` had an IC50 of 196 nM.
`COc1ccc(C(=O)C(=O)c2cc(OC)c(OC)c(OC)c2)cc1O` yielded a half-maximal inhibitory concentration (IC50) of 524 nM.
With `COc1ccc(-c2nonc2-c2cc(OC)c(O)c(OC)c2)cc1O` the figure was 17.5 nM.
`COc1ccc(-c2nonc2-c2cc(OC)c(OC)c(OC)c2)cc1[N+](=O)[O-]`: the IC50 was determined as 72.5 nM.
